In patent publication US20220133729A1, “COMPOSITIONS AND METHODS FOR TREATING BASAL FOREBRAIN DISEASE” (EIP Pharma, Inc., priority 2019, published 2022):

How the values were obtained:
[1] = system: subjects with DLB; assay: Phase 2 randomized, double-blind, placebo-controlled study of neflamapimod in subjects with DLB; assay type: in vivo, human; details: DLB patients
From the text: A Phase 2, multi-center, randomized, double-blind, placebo-controlled study is run of neflamapimod versus matching placebo (randomized 1:1) administered with food for 16 weeks in subjects with DLB. The primary objective is to evaluate the effect of neflamapimod on cognitive function as assessed in a study-specific COGSTATE Neuropsychological Test Battery (NTB). Secondary endpoints include the Clinical Dementia Rating Scale-Sum of Boxes (CDR-SB), Mini-Mental State Examination (MMSE), Neuropsychiatric Inventory (NPI-10), Timed Up and Go Test, and electroencephalogram (EEG) as a potential biomarker for DLB.
Neflamapimod 40 mg capsules are administered orally, BID or TID with food for 16 weeks; subjects will follow the BID regimen if weighing <80 kg or the TID regimen if weighing ≥80 kg. A placebo comparator is 40 mg matching placebo capsules administered orally, BID or TID with food for 16 weeks; subjects will follow the BID regimen if weighing <80 kg or the TID regimen if weighing ≥80 kg.
A primary outcome measure is a composite score of a study-specific COGSTATE Neurological Test Battery (NTB) including the COGSTATE Letter Fluency Test and Category Fluency Test at 16 weeks. A change from Baseline to Week 16 in the composite score of a study-specific Cog-state Neurological Test Battery (NTB), including assessments of attention, executive function, and visuospatial function in neflamapimod treated-subjects as compared to the placebo-treated subjects, are analyzed using the Mixed Model Repeated Measures (MMRM) analysis method. The following six tests are included in the composite: (1) COGSTATE Detection test (DET), (2) COGSTATE Identification test (IDN), (3) COGSTATE One Card Learning test (OCL), (4) COGSTATE One Back test (ONB), (5) Letter Fluency Test, (6) Category Fluency Test (CFT). Each score on the individual tests will be converted to a z-score, and then a total z-score will be calculated, in which each test is weighted equally. The change in total z-score in neflamapimod vs. placebo-recipients is analyzed. […]

[2] = system: Ts2 mice; assay: Ts2 mice treated 28 days with neflamapimod; medial septal nucleus ChAT+ neurons quantitated; assay type: in vivo; details: 3 mg/kg twice-daily
Procedure: Wild-type (WT) or Ts2 mice treated for 28 days, twice-daily, with vehicle (1% PluronicF108) or 3 mg/kg neflamapimod in vehicle (n=8-10 per group; 1:1 female/male). Treatment initiated at 4.7-6.4 months of age, when cholinergic neuronal loss is developing in Ts2 mice. Cortical Rab5+ endosomal number and size, and medial septal nucleus (MSN) cholineacetyltransferase (ChAT)+ neurons quantitated.

Compound: O=c1ncn2nc(Sc3ccc(F)cc3F)ccc2c1-c1c(Cl)cccc1Cl [neflamapimod]
- Mean change from baseline to Week 8, MMSE ([1]; 40 mg TID dosing regimen, increase represents improvement, p=0.033 vs placebo): +1.07
- Mean change from baseline to Week 4, Letter Fluency Test (LFT) ([1]; 40 mg capsules BID or TID, increase represents improvement, p=0.027 vs placebo, preliminary assessment): +3.0
- Mean change from baseline to Week 4, COGSTATE Detection test (DET) ([1]; 40 mg capsules BID or TID, reduction represents improvement, p=0.031 vs placebo, preliminary assessment): −0.024
- cholinergic neuron degeneration in the medial septal nucleus [2]: ameliorated
- morphology (size) of ChAT+ neurons in the medial septal nucleus (MSN) ([2]; oral): normalizes
- ChAT-positive neuron number in the medial septal nucleus ([2]; oral, stereological quantification): normalizes
